Measurements: US10391089B2, “PRMT5 inhibitors and uses therof” (Epizyme, Inc., priority 2012, dated 2019)

These compounds were tested on symmetric di-methyl arginine in Z-138 cells (assay: Z-138 Methylation Assay (In Cell Western for symmetric di-methyl arginine and DNA content)). Conditions: Homo sapiens; Z-138 methylation In Cell Western; read-out: ICW EC50.
Assay type: cell-based
Source text: [formula] [formula] Where top and bottom are the normally allowed to float, but may be fixed at 100 or 0 respectively in a 3-parameter fit. The Hill Coefficient normally allowed to float but may also be fixed at 1 in a 3-parameter fit. Y is the % inhibition and X is the compound concentration.
RPMI/Glutamax medium, penicillin-streptomycin, heat inactivated fetal bovine serum, and D-PBS were purchased from Life Technologies, Grand Island, N.Y., USA. Odyssey blocking buffer, 800CW goat anti-rabbit IgG (H+L) antibody, and Licor Odyssey infrared scanner were purchased from Licor Biosciences, Lincoln, Nebr., USA. Symmetric di-methyl arginine antibody was purchased from EMD Millipore, Billerica, Mass., USA. 16% Paraformaldehyde was purchased from Electron Microscopy Sciences, Hatfield, Pa., USA.
Cell Treatment, in Cell Western (ICW) for Detection of Symmetric Di-Methyl Arginine and DNA Content.
Z-138 cells were seeded in assay medium at a concentration of 50,000 cells per mL to a 384-well cell culture plate with 50 μL per well. Compound (100 nL) from 384 well source plates was added directly to 384 well cell plate. Plates were incubated at 37° C., 5% CO2 for 96 hours. […] Plates were incubated at room temperature for 30 minutes then incubated at 37° C., 5% CO2 for 5 hours. After the incubation, 40 μL per well of 8% paraformaldehyde in PBS (16% paraformaldahyde was diluted to 8% in PBS) was added to each plate and incubated for 30 minutes. […] Next 30 μL per well of Odyssey blocking buffer were added to each plate and incubated 1 hour at room temperature. Blocking buffer was removed and 20 μL per well of primary antibody was added (symmetric di-methyl arginine diluted 1:100 in Odyssey buffer with 0.1% Tween 20 (v/v)) and plates were incubated overnight (16 hours) at 4° C. Plates were washed 5 times with 100 μL per well of wash buffer. Next 20 μL per well of secondary antibody was added (1:200 800CW goat anti-rabbit IgG (H+L) antibody, 1:1000 DRAQ5 (Biostatus limited) in Odyssey buffer with 0.1% Tween 20 (v/v)) and incubated for 1 hour at room temperature. The plates were washed 5 times with 100 μL per well wash buffer then 1 time with 100 μL per well of water. Plates were allowed to dry at room temperature then imaged on the Licor Odyssey machine which measures integrated intensity at 700 nm and 800 nm wavelengths. Both 700 and 800 channels were scanned.
First, the ratio for each well was determined by:
Each plate included fourteen control wells of DMSO only treatment (minimum inhibition) as well as fourteen control wells for maximum inhibition treated with 3 μM of a reference compound (Background wells). The average of the ratio values for each control type was calculated and used to determine the percent inhibition for each test well in the plate. Reference compound was serially diluted three-fold in DMSO for a total of nine test concentrations, beginning at 3 μM. Percent inhibition was determined and IC50 curves were generated using triplicate wells per concentration of compound.

| Compound | EC50 |
| --- | --- |
| CN1CCC(Oc2cncc(C(=O)NC[C@H](O)CN3CCc4ccccc4C3)c2)CC1 [Compound 288] | 101 to 1000 nM |
| CS(=O)(=O)N1CCC(Oc2cncc(C(=O)NC[C@H](O)CN3CCc4ccccc4C3)c2)CC1 [Compound 290] | < 100 nM |
| O=C(NC[C@H](O)CN1CCc2ccccc2C1)c1cccc2ccccc12 [Compound 295] | 101 to 1000 nM |
| O=C(NC[C@H](O)CN1CCc2ccccc2C1)c1cncc(NC2COC2)c1 [Compound 299] | < 100 nM |
| O=C(NC[C@H](O)CN1CCc2ccccc2C1)c1cncc(NC2CCN(CC(F)(F)F)C2)c1 (some centres unmarked) [Compound 303] | < 100 nM |
